According to US6066628A, “Non-iron metalloporphyrins and methods of use” (Emory University, priority 1998, dated 2000):

Assays:
[1] = system: Y. enterocolitica; experiment: Disc diffusion sensitivity test; format: cell-based; conditions: disc ~50 μg MP
[2] = system: N. meningitidis; experiment: Disc diffusion sensitivity test; format: cell-based; conditions: disc ~50 μg MP
[3] = system: S. marcescens; experiment: Disc diffusion sensitivity test; format: cell-based, Serratia marcescens; conditions: S. marcescens; disc ~50 μg MP
[4] = system: Ps. aeruginosa; experiment: Disc diffusion sensitivity test; format: cell-based, Pseudomonas aeruginosa; conditions: disc ~50 μg MP; further: key: -: resistant; N: not determined
[5] = system: S. aureus; experiment: Disc diffusion sensitivity test; format: cell-based, Staphylococcus aureus; conditions: for diameter (mm) of the inhibition zone: S. aureus, disc ~50 μg MP
[6] = system: B. subtilis; experiment: Disc diffusion sensitivity test; format: cell-based, Bacillus subtilis; conditions: for diameter (mm) of the inhibition zone: B. subtilis, disc ~50 μg MP
[7] = system: S. pyogenes A; experiment: Disc diffusion sensitivity test; format: cell-based, Streptococcus pyogenes; conditions: disc ~50 μg MP
[8] = system: E. faecalis; experiment: Disc diffusion sensitivity test; format: cell-based, Enterococcus faecalis; conditions: disc ~50 μg MP; further: key: -: resistant; N: not determined
[9] = system: M. smegmatis; experiment: Disc diffusion sensitivity test; format: cell-based, Mycobacterium smegmatis; conditions: disc ~50 μg MP
[10] = system: M. bovis; format: cell-based, Mycobacterium bovis; conditions: disc ~50 μg MP
[11] = system: S. crevisieae; experiment: Disc diffusion sensitivity test; format: cell-based, Saccharomyces cerevisiae; conditions: S. cerevisiae; disc ~50 μg MP
[12] = system: Y. enterocolitica; experiment: microbe, parasite or virus in culture; format: cell-based
[13] = system: S. aureus; format: cell-based, Staphylococcus aureus; conditions: for Minimal inhibitory concentration (MIC): methicillin-resistant S. aureus IR219, Nutrient broth (Table 2); for antibacterial activity: S. aureus
[14] = system: M. smegmatis; format: cell-based, Mycobacterium smegmatis; conditions: M. smegmatis LR222; LB + Tween 80 (Table 2)
[15] = system: E. coli; experiment: Disc diffusion sensitivity test; format: cell-based, Escherichia coli; conditions: E. coli; disc ~50 μg MP
[16] = system: P. mirabills; experiment: Disc diffusion sensitivity test; format: cell-based, Proteus mirabilis; conditions: P. mirabilis; disc ~50 μg MP
[17] = system: K. pneumoniae; experiment: Disc diffusion sensitivity test; format: cell-based, Klebsiella pneumoniae; conditions: K. pneumoniae; disc ~50 μg MP
[18] = system: K. oxytoca; experiment: Disc diffusion sensitivity test; format: cell-based, Klebsiella oxytoca; conditions: K. oxytoca; disc ~50 μg MP
[19] = system: C. freundii; experiment: Disc diffusion sensitivity test; format: cell-based, Citrobacter freundii; conditions: C. freundii; disc ~50 μg MP
[20] = system: E. aerogenes; experiment: Disc diffusion sensitivity test; format: cell-based, Enterobacter aerogenes; conditions: E. aerogenes; disc ~50 μg MP
[21] = system: F. menigosepticum; experiment: Disc diffusion sensitivity test; format: cell-based, Flavobacterium meningosepticum; conditions: F. meningosepticum; disc ~50 μg MP
[22] = system: M tuber. H37Rv; experiment: Disc diffusion sensitivity test; format: cell-based, Mycobacterium tuberculosis; conditions: disc ~50 μg MP
[23] = system: M tuber. H37Pa; experiment: Disc diffusion sensitivity test; format: cell-based, Mycobacterium tuberculosis; conditions: disc ~50 μg MP
[24] = system: bacteria; format: cell-based; conditions: listed as Manganese (+2)-meso-tetra-4-sulfonatophenyl porphine
[25] = system: Y. enterocolitica; experiment: Minimal bactericidal concentration; format: cell-based; conditions: reduces plating efficiency more than 99.9%; minimal exposure to light
[26] = system: S. aureus; experiment: Minimal bactericidal concentration; format: cell-based, Staphylococcus aureus; conditions: reduces plating efficiency more than 99.9%; minimal exposure to light
Description: Minimal bactericidal concentrations (MBCs) were determined essentially the same way as MICs except that the amount of killing with a particular concentration of porphyrin derivative was determined by plating on solid microbiological media (LB plates or LB+Tween 80). Media were solidified by the incorporation of 1.5% agar (Difco Laboratories). Concentrations of porphyrins that produced 99.9% reduction in bacterial counts were considered bactericidal [Hindler et al. (1994) supra].
MBC were determined by plating bacterial cultures that have been incubate
in the presence of MPs at concentrations higher than MIC. MBC was defined
as a concentration of a particular MP which reduces the plating efficienc
more than 99.9%. Experiments were done with minimal exposure to light
(addition of porphyrins waa done in the presence of artifical light).

[27] = system: M. smegmatis; experiment: Minimal bactericidal concentration; format: cell-based, Mycobacterium smegmatis; conditions: reduces plating efficiency more than 99.9%; minimal exposure to light

C=Cc1c(C)c2cc3[nH]c(cc4nc(cc5nc(cc1[nH]2)C(C)=C5CCC(=O)[O-])C(CCC(=O)[O-])=C4C)c(C)c3C=C.[Co+2] [Co-PPIX]
diameter (mm) of the inhibition zone [1]: - | diameter (mm) of the inhibition zone [2]: - | diameter (mm) of the inhibition zone [3]: - | diameter (mm) of the inhibition zone [4]: - | diameter (mm) of the inhibition zone [5]: 15 mm | diameter (mm) of the inhibition zone [6]: - | diameter (mm) of the inhibition zone [7]: - | diameter (mm) of the inhibition zone [8]: - | diameter (mm) of the inhibition zone [9]: - | diameter (mm) of the inhibition zone [10]: - | diameter (mm) of the inhibition zone [11]: 18 mm | Minimal inhibitory concentration (MIC) [12]: 20 | Minimal inhibitory concentration (MIC) [13]: 40 µg/mL | Minimal inhibitory concentration (MIC) [14]: 20 µg/mL

C=CC1=C(C)c2cc3[n-]c(cc4nc(cc5[n-]c(cc1n2)c(C)c5CCC(=O)O)C(CCC(=O)O)=C4C)c(C)c3C=C.[Cr+2] [Cr-PPIX]
diameter (mm) of the inhibition zone [1]: - | diameter (mm) of the inhibition zone [2]: - | diameter (mm) of the inhibition zone [3]: - | diameter (mm) of the inhibition zone [4]: - | diameter (mm) of the inhibition zone [5]: 10 mm | diameter (mm) of the inhibition zone [6]: - | diameter (mm) of the inhibition zone [7]: - | diameter (mm) of the inhibition zone [8]: - | diameter (mm) of the inhibition zone [9]: - | diameter (mm) of the inhibition zone [10]: - | diameter (mm) of the inhibition zone [11]: - | Minimal inhibitory concentration (MIC) [12]: 20 | Minimal inhibitory concentration (MIC) [13]: > 40 µg/mL | Minimal inhibitory concentration (MIC) [14]: 20 µg/mL

C=CC1=C(C)C2=Cc3c(C=C)c(C)c4[n]3[Mg][n]3c(c(C)c(CCC(=O)O)c3=CC3=NC(=C4)C(C)=C3CCC(=O)O)=CC1=N2 [Mg-PPIX]
diameter (mm) of the inhibition zone [1]: - | diameter (mm) of the inhibition zone [2]: - | diameter (mm) of the inhibition zone [15]: - | diameter (mm) of the inhibition zone [16]: - | diameter (mm) of the inhibition zone [17]: - | diameter (mm) of the inhibition zone [18]: - | diameter (mm) of the inhibition zone [4]: - | diameter (mm) of the inhibition zone [19]: - | diameter (mm) of the inhibition zone [20]: - | diameter (mm) of the inhibition zone [21]: - | zone of inhibition at 50 µg/disc ([5]; Staphylococcus aureus, read-out: diameter (mm) of the inhibition zone): 15 mm | zone of inhibition at 50 µg/disc ([6]; Bacillus subtilis, read-out: diameter (mm) of the inhibition zone): 15 mm | diameter (mm) of the inhibition zone [8]: - | MIC ([13]; Staphylococcus aureus, read-out: Minimal inhibitory concentration (MIC)): > 10 µg/mL

O=S(=O)([O-])c1ccc(-c2c3nc(c(-c4ccc(S(=O)(=O)[O-])cc4)c4ccc([n-]4)c(-c4ccc(S(=O)(=O)[O-])cc4)c4nc(c(-c5ccc(S(=O)(=O)[O-])cc5)c5ccc2[n-]5)C=C4)C=C3)cc1.[Cl-].[Mn+3] [Mn-meso, Mnmeso-tetra(4-sulfonatophenyl)-porphine chloride]
diameter (mm) of the inhibition zone [1]: - | diameter (mm) of the inhibition zone [2]: - | diameter (mm) of the inhibition zone [3]: - | diameter (mm) of the inhibition zone [15]: - | diameter (mm) of the inhibition zone [16]: - | diameter (mm) of the inhibition zone [17]: - | diameter (mm) of the inhibition zone [18]: - | diameter (mm) of the inhibition zone [4]: - | diameter (mm) of the inhibition zone [19]: - | diameter (mm) of the inhibition zone [20]: - | diameter (mm) of the inhibition zone [21]: - | diameter (mm) of the inhibition zone [5]: - | diameter (mm) of the inhibition zone [6]: - | diameter (mm) of the inhibition zone [22]: - | diameter (mm) of the inhibition zone [23]: - | antibacterial activity [24]: inactive

C=CC1=C(C)c2cc3[n-]c(cc4nc(cc5[n-]c(cc1n2)c(C)c5CCC(=O)O)C(CCC(=O)O)=C4C)c(C)c3C=C.[Pd+2] [Pd-PPIX]
diameter (mm) of the inhibition zone [2]: - | diameter (mm) of the inhibition zone [3]: - | diameter (mm) of the inhibition zone [15]: - | diameter (mm) of the inhibition zone [16]: - | diameter (mm) of the inhibition zone [17]: - | diameter (mm) of the inhibition zone [18]: - | diameter (mm) of the inhibition zone [4]: - | diameter (mm) of the inhibition zone [19]: - | diameter (mm) of the inhibition zone [20]: - | diameter (mm) of the inhibition zone [21]: - | diameter (mm) of the inhibition zone [5]: - | diameter (mm) of the inhibition zone [8]: - | diameter (mm) of the inhibition zone [10]: - | Minimal inhibitory concentration (MIC) [12]: > 40 | Minimal inhibitory concentration (MIC) [13]: 50 µg/mL | Minimal inhibitory concentration (MIC) [14]: 20 µg/mL

C=CC1=C(C)c2cc3[n-]c(cc4nc(cc5[n-]c(cc1n2)c(C)c5CCC(=O)O)C(CCC(=O)O)=C4C)c(C)c3C=C.[Ru+2] [Ru-PPIX]
diameter (mm) of the inhibition zone [1]: - | diameter (mm) of the inhibition zone [2]: 11 mm | diameter (mm) of the inhibition zone [3]: - | diameter (mm) of the inhibition zone [4]: - | diameter (mm) of the inhibition zone [21]: - | diameter (mm) of the inhibition zone [5]: 12 mm | diameter (mm) of the inhibition zone [6]: - | diameter (mm) of the inhibition zone [8]: - | diameter (mm) of the inhibition zone [9]: - | diameter (mm) of the inhibition zone [10]: - | diameter (mm) of the inhibition zone [11]: - | Minimal inhibitory concentration (MIC) [12]: > 40 | antibacterial activity [13]: some activity | Minimal inhibitory concentration (MIC) [13]: 5 µg/mL | Minimal inhibitory concentration (MIC) [14]: 20 µg/mL | Minimal bactericidal concentration (MBC) [25]: > 40 | Minimal bactericidal concentration (MBC) [26]: 10 | Minimal bactericidal concentration (MBC) [27]: > 20

C=Cc1c2[n-]c(c1C)/C=c1\[n-]/c(c(C)c1C=C)=C\c1[n-]c(c(CCC(=O)O)c1C)C=c1[n-]/c(c(C)c1CCC(=O)O)=C\2.[Sn+4] [Sn-PPIX, tin-protoporphyrin IX]
diameter (mm) of the inhibition zone [1]: - | diameter (mm) of the inhibition zone [2]: - | diameter (mm) of the inhibition zone [3]: - | diameter (mm) of the inhibition zone [4]: - | diameter (mm) of the inhibition zone [5]: - | diameter (mm) of the inhibition zone [6]: - | diameter (mm) of the inhibition zone [7]: - | diameter (mm) of the inhibition zone [8]: - | diameter (mm) of the inhibition zone [9]: - | diameter (mm) of the inhibition zone [10]: - | diameter (mm) of the inhibition zone [11]: - | Minimal inhibitory concentration (MIC) [12]: 20 | Minimal inhibitory concentration (MIC) [13]: > 40 µg/mL | Minimal inhibitory concentration (MIC) [14]: 20 µg/mL

C=CC1=C(C)c2cc3[n-]c(cc4nc(cc5[n-]c(cc1n2)c(C)c5CCC(=O)O)C(CCC(=O)O)=C4C)c(C)c3C=C.[Ti+2] [Ti-PPIX]
diameter (mm) of the inhibition zone [1]: - | diameter (mm) of the inhibition zone [2]: - | diameter (mm) of the inhibition zone [15]: - | diameter (mm) of the inhibition zone [16]: - | diameter (mm) of the inhibition zone [17]: - | diameter (mm) of the inhibition zone [18]: - | diameter (mm) of the inhibition zone [4]: - | diameter (mm) of the inhibition zone [19]: - | diameter (mm) of the inhibition zone [20]: - | diameter (mm) of the inhibition zone [21]: - | diameter (mm) of the inhibition zone [5]: - | diameter (mm) of the inhibition zone [6]: 12 mm | diameter (mm) of the inhibition zone [8]: - | Minimal inhibitory concentration (MIC) [12]: > 40 | Minimal inhibitory concentration (MIC) [13]: 40 µg/mL | Minimal inhibitory concentration (MIC) [14]: > 40 µg/mL

C=CC1=C(C)c2cc3[n-]c(cc4nc(cc5[n-]c(cc1n2)c(C)c5C=C)C(C)=C4CCC(=O)O)c(CCC(=O)O)c3C.[Zn+2] [Zn-PPIX]
diameter (mm) of the inhibition zone [1]: - | diameter (mm) of the inhibition zone [2]: 10 mm | diameter (mm) of the inhibition zone [3]: - | diameter (mm) of the inhibition zone [4]: - | diameter (mm) of the inhibition zone [5]: 12 mm | diameter (mm) of the inhibition zone [6]: - | diameter (mm) of the inhibition zone [8]: - | diameter (mm) of the inhibition zone [9]: - | diameter (mm) of the inhibition zone [10]: - | diameter (mm) of the inhibition zone [11]: - | Minimal inhibitory concentration (MIC) [12]: > 40 | antibacterial activity [13]: some activity | Minimal inhibitory concentration (MIC) [13]: 3.2 µg/mL | Minimal inhibitory concentration (MIC) [14]: 20 µg/mL
